Where a name gives a salt, the structure may show the parent alone. Read-outs that look alike come from different tables or passages of the source.
Assays:
[1] = result in words; cited from earlier work
[2] = cited from earlier work; for biodegradability in the ZWT: result in words
[3] = cited from earlier work; for biodegradability in the CBT: result in words; for biodegradation in the CBT, test prolonged: prolonged to 40 days
[4] = result in words; cited from earlier work; remark: listed apart in the source
[5] = result in words; cited from earlier work; remark: listed apart in the source
[6] = result in words; cited from earlier work; remark: listed apart in the source
[7] = laboratory-scale activated sludge plants; cited from earlier work
[8] = eight German STPs; cited from earlier work
[9] = cited from earlier work
[10] = cited from earlier work; remark: listed apart in the source
[11] = computer model, binding to sludge solids; cited from earlier work
[12] = result in words; cited from earlier work; remark: listed apart in the source
[13] = test system: fecal coliforms; experiment: sulfur dioxide treatment of effluent, Saticoy-Jose Florez Wastewater Treatment Plant; conditions: effluent undergoing sulfur dioxide treatment
Source text: The destruction of odor causing microbes feeding on the water stops further CO2 production, and may be employed where the wastewater treatment plant is mandated to reduce these carbon dioxide emissions. Also, if there is significant carbon in the suspended solids, most perchlorates and chlorates will have been reduced on contact with the solids. The separation and disposal of the solids also removes most of the adsorbed microbes. Under this wastewater treatment scenario, the sulfur dioxide reduction treatment is more for acidification, inactivating of certain chemicals such as Chromium VI susceptible to acid reduction, adding sulfurous and sulfate ions, and chemical dewatering of the solids. […] This disinfection level is suitable in California for gray water land application. Consequently, the sulfur dioxide was used primarily to acid reduce pharmaceuticals, and condition the solids and separated wastewater for land application.

[14] = epilimnion of Lake Greifensee; cited from earlier work
[15] = wastewater treatment plant; cited from earlier work
[16] = pilot sewage plant and anoxic biofilm reactor

SMILES: CN(CC(O)CO)C(=O)c1c(I)c(N)c(I)c(C(=O)NCC(O)CO)c1I (stereo not shown) [5-amino-N,N′bis(2,3-dihydroxypropyl)-2,4,6-triiodo-N-methyliso-phthalamide]
- photodegradation [1]: faster rate of photolysis than the parent compound

SMILES: O=c1[nH]cc(F)c(=O)[nH]1 [5-fluorouracil]
- biodegradability in the ZWT [2]: not biodegradable
- biodegradability in the CBT [3]: not biodegradable

SMILES: CN(C)CCn1nnnc1SCC1=C(C(=O)O)N2C(=O)[C@@H](NC(=O)Cc3csc(N)n3)[C@H]2SC1 [cefotiam]
- biodegradability in the CBT [3]: None of the test compounds met the criteria for ready biodegradability

SMILES: CN/C(=N/CCSCc1nc[nH]c1C)NC#N [cimetidine]
- direct photolysis [4]: resistant to direct photolysis

SMILES: O=C(O)c1cn(C2CC2)c2cc(N3CCNCC3)c(F)cc2c1=O [ciprofloxacin]
- biodegradability [5]: none of the compounds were biodegraded
- biodegradability in the CBT [3]: None of the test compounds met the criteria for ready biodegradability

SMILES: Oc1ccc(Cl)c2cccnc12 [cloxiquin]
- light sensitivity [6]: light sensitive

SMILES: O=P1(N(CCCl)CCCl)NCCCO1 (stereo not shown) [cyclophosphamide]
- biodegradability [7]: poor biodegradability
- biodegradability in the ZWT [2]: poor biodegradability
- biodegradability in the CBT [3]: poor biodegradability

SMILES: CC(=O)Nc1c(I)c(NC(C)=O)c(I)c(C(=O)O)c1I [diatrizoate]
- degradation or absorption during sewage treatment [8]: not significantly degraded or absorbed

SMILES: O=C(O)Cc1ccccc1Nc1c(Cl)cccc1Cl [diclofenac]
- degraded ([9]; entering a Swiss lake): up to 90%
- reduction on incubation in the dark ([9]; fortified lake water): no reduction
- biological degradation [10, 16]: partially degraded

SMILES: Nc1ccn([C@@H]2O[C@H](CO)[C@@H](O)C2(F)F)c(=O)n1 [gemcitabine]
- degree of biodegradation, test prolonged ([2]; prolonged to 40 days, test read from the sentence before): 80%
- biodegradation in the CBT, test prolonged [3]: 45%

SMILES: CC(C)Cc1ccc(C(C)C(=O)O)cc1 (stereo not shown) [ibuprofen]
- biological degradation ([10]; oxic biofilm reactor): high degree of degradation
- biological degradation [10, 16]: partially degraded

SMILES: CN(C(=O)CO)c1c(I)c(C(=O)NCC(O)CO)c(I)c(C(=O)NCC(O)CO)c1I (stereo not shown) [iomeprol]
- degradation or absorption during sewage treatment [8]: not significantly degraded or absorbed

SMILES: C[C@H](O)C(=O)Nc1c(I)c(C(=O)NC(CO)CO)c(I)c(C(=O)NC(CO)CO)c1I [iopamidol]
- degradation or absorption during sewage treatment [8]: not significantly degraded or absorbed

SMILES: COCC(=O)Nc1c(I)c(C(=O)NCC(O)CO)c(I)c(C(=O)N(C)CC(O)CO)c1I (stereo not shown) [iopromide]
- degradation or absorption during sewage treatment [8]: not significantly degraded or absorbed
- photodegradation [1]: amenable to photodegradation

SMILES: Cc1cccc(Nc2ccccc2C(=O)O)c1C [mefenamic acid]
- predicted sorption potential [11]: high capacity to bind to solids

SMILES: C[C@@H](O)[C@H]1C(=O)N2C(C(=O)O)=C(S[C@@H]3CN[C@H](C(=O)N(C)C)C3)[C@H](C)[C@H]12 [meropenem]
- biodegradability in the CBT [3]: None of the test compounds met the criteria for ready biodegradability

SMILES: CN(C/C=C/c1ccccc1)Cc1cccc2ccccc12 [naftifine]
- light sensitivity [6]: light sensitive

SMILES: CC(=O)Nc1ccc(O)cc1 [paracetamol]
- biodegradability [12]: biodegradable

SMILES: CC1(C)S[C@@H]2[C@H](NC(=O)Cc3ccccc3)C(=O)N2[C@H]1C(=O)O [penicillin G]
- biodegradation in the CBT, test prolonged [3]: 35%
- biodegradation in the CBT (removed / biodegraded) ([3]; regular test period, 28 days printed for penicillin G): approximately 27%
- biodegradability in the CBT [3]: None of the test compounds met the criteria for ready biodegradability

SMILES: C=C[C@H]1C[N@@]2CC[C@H]1C[C@H]2[C@H](O)c1ccnc2ccc(OC)cc12 [quinine sulfate]
- predicted sorption potential [11]: high capacity to bind to solids

SMILES: O=C(O)c1ccccc1O [salicylic acid]
- biodegradability [12]: biodegradable

SMILES: S=C1SCN(Cc2ccccc2)CN1Cc1ccccc1 [sulbentine]
- light sensitivity [6]: light sensitive

SMILES: O=S=O [sulfur dioxide]
- fecal coliforms in treated effluent [13]: < 2 MPN

SMILES: Cc1cccc(N(C)C(=S)Oc2ccc3ccccc3c2)c1 [tolnaftate]
- light sensitivity [6]: light sensitive

SMILES: Oc1cc(Cl)ccc1Oc1ccc(Cl)cc1Cl [triclosan, 2,4,4′-trichloro2′-hydroxyphenyl ether]
- overall elimination rate due to photochemical degradation [14]: 0.03 day⁻¹
- fate: biological degradation [15]: 79%
